# Data from patent US8956642B2, “Bupivacaine formulation in a polyorthoester carrier” (Medtronic, Inc., priority 2008, dated 2015).
# What was measured:
# [1] = test system: normal bladder activity (frequency of reflex bladder contractions); test: Epidural infusion of bupivacaine in rats, intravesical saline infusion (normal bladder activity, cystometrogram); type: in vivo, rat; conditions: epidural infusion 25 μg/day, saline infusion into bladder
# Procedure: (§1) FIG. 5 is a graphic representation of epidural infusion of bupivacaine in rats treated with an intravesical infusion of saline. Baseline bladder activity was measured before epidural drug treatment as described in Example 4. The columns and error bars represent the mean and SEM values of 10 rats per group. Asterisks indicate statistically significant dose effects compared to baseline as determined by post-hoc Dunnett Multiple Comparison Test.
# (§2) An animal model that has been used frequently to study pelvic pain conditions is a rat model of bladder pain. In this model, a female rat was lightly anesthetized with isoflurane and a transurethral catheter was placed into the bladder. The catheter was connected to a pressure transducer so that the pressure within the bladder could be continuously monitored and recorded over time. Fluid was continuously infused into the bladder using a syringe pump at a rate of 0.1 mL/min to cause the bladder to contract repeatedly each time it became full. This is referred to as a volume-evoked micturition reflex or contraction. A repeated series of bladder contractions (pressure spikes) over time was collected using this method. To mimic normal bladder activity, 0.9% saline was infused into the bladder; to mimic painful bladder activity, a dilute solution of acetic acid (0.5%) was infused into the bladder. […]
# [2] = test system: acetic acid induced bladder hypermotility (frequency of bladder contraction reflexes); test: Epidural infusion of bupivacaine in rat model of bladder pain, intravesical acetic acid infusion; type: in vivo; conditions: epidural infusion 25 μg/day
# Procedure: as §1, with “6” for “5”, “acetic acid as described in Example 4.” for “saline.”, “treatment.” for “treatment as described in Example 4.”
# as §2, with “contraction.” for “contraction. A repeated series of bladder contractions (pressure spikes) over time was collected using this method. To mimic normal bladder activity, 0.9% saline was infused into the bladder; to mimic painful bladder activity, a dilute solution of acetic acid (0.5%) was infused into the bladder.”
# In order to evaluate the effects of epidurally administered analgesics on normal and painful bladder activity (frequency of reflex bladder contractions), test drugs were continuously administered via an epidural catheter with the tip placed in the mid-lumbar epidural space. […] In the experiments depicted in FIGS. 5 and 6, the baseline bladder activity was measured before implanting the epidural infusion system, the infusion system was implanted on day 0 and cystometrograms were recorded on three consecutive days during which bupivacaine (25 μg/day) was infused into the lumbar epidural space.
# Bupivacaine at 25 μg/day reduced acetic acid induced bladder hypermotility by approximately 3 fold on days 2 and 3. The frequency of bladder contraction observed during acetic acid infusion and epidural bupivacaine administration was similar to the baseline bladder activity measured during saline infusion (0.206±0.046 day 3 acetic acid and epidural bupivacaine vs 0.295±0.035 baseline saline).
structure (smiles),measurement,setting,value
"CCCCN1CCCCC1C(=O)Nc1c(C)cccc1C (centres unmarked) [bupivacaine, 1-butyl-N-(2,6-dimethylphenyl)piperidine-2-carboxamide]",effects on normal bladder activity measured during saline infusion,"[1]; day 1, vs baseline",minimal effects
same,contraction rate relative to the baseline reflex contraction rate,[1]; days two and three,statistically significant reductions
same,frequency of bladder contraction reflexes vs baseline,"[2]; 0.5% acetic acid infusion into bladder, all three days",significantly reduced
same,frequency of bladder contraction,"[2]; acetic acid infusion, day 3, mean ± SEM",0.206±0.046 reflexes per min
same,reduction of acetic acid induced bladder hypermotility,[2]; days 2 and 3,approximately 3 fold
